Consider eleven compounds from US8614201B2 (Janssen Pharmaceutica NV, priority 2009, dated 2013).

Human TRPA1, sequence (O75762 whole entry): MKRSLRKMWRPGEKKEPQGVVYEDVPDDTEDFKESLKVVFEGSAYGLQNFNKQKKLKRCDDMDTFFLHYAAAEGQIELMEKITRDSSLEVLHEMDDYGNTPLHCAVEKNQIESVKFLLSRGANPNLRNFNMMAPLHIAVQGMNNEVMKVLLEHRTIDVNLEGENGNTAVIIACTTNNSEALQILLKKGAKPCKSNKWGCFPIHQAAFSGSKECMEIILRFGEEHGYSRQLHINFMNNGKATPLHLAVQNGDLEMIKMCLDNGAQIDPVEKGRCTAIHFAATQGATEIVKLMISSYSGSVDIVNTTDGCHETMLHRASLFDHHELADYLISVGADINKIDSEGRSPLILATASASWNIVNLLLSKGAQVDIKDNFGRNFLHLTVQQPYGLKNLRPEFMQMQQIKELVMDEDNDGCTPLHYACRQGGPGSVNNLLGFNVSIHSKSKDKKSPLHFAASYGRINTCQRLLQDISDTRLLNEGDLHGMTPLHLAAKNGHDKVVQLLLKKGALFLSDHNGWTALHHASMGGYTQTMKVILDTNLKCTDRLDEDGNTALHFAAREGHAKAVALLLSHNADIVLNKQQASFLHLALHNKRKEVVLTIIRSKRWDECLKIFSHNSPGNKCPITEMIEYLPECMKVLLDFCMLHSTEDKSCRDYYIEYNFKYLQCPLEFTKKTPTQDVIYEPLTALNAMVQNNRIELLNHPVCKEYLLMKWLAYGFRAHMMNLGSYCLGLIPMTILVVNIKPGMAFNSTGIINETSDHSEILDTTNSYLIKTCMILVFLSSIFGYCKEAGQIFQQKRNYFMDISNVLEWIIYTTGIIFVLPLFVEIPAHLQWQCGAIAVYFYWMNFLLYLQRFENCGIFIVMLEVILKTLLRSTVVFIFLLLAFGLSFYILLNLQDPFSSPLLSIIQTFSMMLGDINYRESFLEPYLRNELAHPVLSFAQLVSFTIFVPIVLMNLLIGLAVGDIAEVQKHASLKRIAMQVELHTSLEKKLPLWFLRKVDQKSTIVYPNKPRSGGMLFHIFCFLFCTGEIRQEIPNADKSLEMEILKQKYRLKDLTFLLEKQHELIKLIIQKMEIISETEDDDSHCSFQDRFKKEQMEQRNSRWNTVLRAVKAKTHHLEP

The target of the test is Human TRPA1 (Homo sapiens, UniProt O75762). Description: Assay 1: In vitro cellular testing of TRPA1 modulation (CHO-TREx, Fluo-3 calcium fluorescence, AITC agonist). The settings on record: CHO-TREx cells expressing human TRPA1; Fluo-3 fluorescence (FLIPR/Tetra); agonist 15 μM allyl isothiocyanate (AITC); 30 minute antagonist incubation. Details: expressed in transfected cells; host or cells: CHO-TREx cells (Invitrogen), vector pcDNA4/TO. The format is cell-based. In outline:
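Tetracycline-induced CHO-TREx cells stably expressing human TRPA1, loaded with 4 μM Fluo-3 AM, preincubated 30 min with compound (serial dilution typically from 10 μM, three-fold steps) in HEPES saline pH 7.4. Fluorescence change over 3 min after 15 μM AITC; IC50 from Hill fit versus no-antagonist and 10 μM ruthenium red controls.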
As a reminder, the IC50 is the midpoint of a concentration-inhibition curve. As to `C[C@H](NC(=O)[C@@H]1CCCN1S(=O)(=O)c1ccc(F)cc1)c1cccc(-c2ccc(C(F)(F)F)cc2)c1` [Example 113, (1S,2S)-1-(4-Fluoro-benzenesulfonyl)-pyrrolidine-2-carboxylic acid [1-(4′-trifluoromethyl-biphenyl-3-yl)-ethyl]-amide], the IC50 turned out to be 62 nM.

As to `C[C@@H](NC(=O)[C@@H]1CCCN1S(=O)(=O)c1ccc(F)cc1)c1cccc(-c2ccc(C(F)(F)F)cc2)c1` [Example 114, (1R,2S)-1-(4-Fluoro-benzenesulfonyl)-pyrrolidine-2-carboxylic acid [1-(4′-trifluoromethyl-biphenyl-3-yl)ethyl]-amide], the IC50 was determined as 2930 nM. In the case of `C[C@H](NC(=O)[C@@H]1CCCN1S(=O)(=O)c1ccc(Cl)s1)c1cccc(-c2ccc(C(F)(F)F)cc2)c1` [Example 115, (1S,2S)-1-(5-Chloro-thiophene-2-sulfonyl)-pyrrolidine-2-carboxylic acid [1-(4′-trifluoromethylbiphenyl-3-yl)ethyl]-amide], the IC50 worked out at 15 nM. `C[C@@H](NC(=O)[C@@H]1CCCN1S(=O)(=O)c1ccc(Cl)s1)c1cccc(-c2ccc(C(F)(F)F)cc2)c1` [Example 116, (1R,2S)-1-(5-Chloro-thiophene-2-sulfonyl)-pyrrolidine-2-carboxylic acid [1-(4′-trifluoromethylbiphenyl-3-yl)ethyl]-amide]: the concentration for half-maximal inhibition (IC50) turned out to be 386 nM. With `CC(C)(NC(=O)[C@@H]1CCCN1S(=O)(=O)c1ccc(Cl)s1)c1cccc(-c2ccc(C(F)(F)F)cc2)c1` [Example 118, (2S)-1-(5-Chloro-thiophene-2-sulfonyl)-pyrrolidine-2-carboxylic acid [1-methyl-1-(4′-trifluoromethyl-biphenyl-3-yl)ethyl]-amide], the IC50 was 5770 nM. For `O=C(NCc1cccc(-c2ccc(C(F)(F)F)cc2)c1)[C@@H]1CC(F)(F)CN1S(=O)(=O)c1ccc(F)cc1` [Example 119, (2S)-4,4-Difluoro-1-(4-fluoro-benzenesulfonyl)-pyrrolidine-2-carboxylic acid (4′-trifluoromethyl-biphenyl-3-ylmethyl)-amide], the IC50 came out at 47 nM.

Take `O=C(NCc1cccc(-c2ccc(C(F)(F)F)cc2)c1)[C@@H]1CC(F)(F)CN1S(=O)(=O)c1ccc(Cl)s1` [Example 120, (2S)-1-(5-Chloro-thiophene-2-sulfonyl)-4,4-difluoro-pyrrolidine-2-carboxylic acid (4′-trifluoromethyl-biphenyl-3-ylmethyl)-amide]: the IC50 worked out at 30 nM.

As to `O=C(NCc1cccc(-c2ccc(C(F)(F)F)cc2)c1)[C@@H]1C[C@H](O)CN1S(=O)(=O)c1ccc(F)cc1` [Example 121, (2S,4S)-1-(4-Fluoro-benzenesulfonyl)-4-hydroxy-pyrrolidine-2-carboxylic acid (4′-trifluoromethyl-biphenyl-3-ylmethyl)-amide], the IC50 is 1530 nM.

As to `O=C(NCc1cccc(-c2ccc(C(F)(F)F)cc2)c1)[C@@H]1C[C@@H](O)CN1S(=O)(=O)c1ccc(F)cc1` [Example 122, (2S,4R)-1-(4-Fluoro-benzenesulfonyl)-4-hydroxy-pyrrolidine-2-carboxylic acid (4′-trifluoromethyl-biphenyl-3-ylmethyl)-amide], the IC50 amounted to 267 nM. For `O=C(NCc1ccnc(-c2ccc(C(F)(F)F)cc2)c1)[C@@H]1CCCN1S(=O)(=O)c1ccc(F)cc1` [Example 123, 1-(4-Fluoro-benzenesulfonyl)-pyrrolidine-2S-carboxylic acid [2-(4-trifluoromethyl-phenyl)-pyridin-4-ylmethyl]-amide] the value was 32 nM; for `O=C(NCc1ccnc(-c2ccc(C(F)(F)F)cc2)c1)[C@@H]1CCCN1S(=O)(=O)c1ccc(Cl)s1` [Example 124, 1-(5-Chlorothiophene-2-sulfonyl)pyrrolidine-2S-carboxylic acid [2-(4-trifluoromethylphenyl)-pyridin-4-ylmethyl]-amide], 11 nM.
